From PubChem BioAssay AID1259407 (Chemical Carcinogenesis Research Information System (CCRIS), 2018)
The source made the active and inactive calls. How the calls were made is not given here.

System: CCRIS mutagenicity, Ames/micronucleus/aberration tests
Assay: CCRIS mutagenicity studies
[1] = Test System: AMES SALMONELLA TYPHIMURIUM, Strain/Indicator: TA98, Metabolic Activation: NONE, Method: STANDARD PLATE
[2] = Test System: AMES SALMONELLA TYPHIMURIUM, Strain/Indicator: TA100, Metabolic Activation: NONE, Method: STANDARD PLATE
[3] = Test System: AMES SALMONELLA TYPHIMURIUM, Strain/Indicator: TA1535, Metabolic Activation: NONE, Method: STANDARD PLATE
[4] = Test System: AMES SALMONELLA TYPHIMURIUM, Strain/Indicator: TA1537, Metabolic Activation: NONE, Method: STANDARD PLATE
[5] = Test System: AMES SALMONELLA TYPHIMURIUM, Strain/Indicator: TA1538, Metabolic Activation: NONE, Method: STANDARD PLATE
[6] = Test System: AMES SALMONELLA TYPHIMURIUM, Strain/Indicator: TA98, Metabolic Activation: S-9, Method: STANDARD PLATE
[7] = Test System: AMES SALMONELLA TYPHIMURIUM, Strain/Indicator: TA100, Metabolic Activation: S-9, Method: STANDARD PLATE
[8] = Test System: AMES SALMONELLA TYPHIMURIUM, Strain/Indicator: TA1535, Metabolic Activation: S-9, Method: STANDARD PLATE
[9] = Test System: AMES SALMONELLA TYPHIMURIUM, Strain/Indicator: TA1537, Metabolic Activation: S-9, Method: STANDARD PLATE

Structure (SMILES)	mutagenic call [1]	mutagenic call [2]	mutagenic call [3]	mutagenic call [4]	mutagenic call [5]	mutagenic call [6]	mutagenic call [7]	mutagenic call [8]	mutagenic call [9]	other results
O=C(O)c1ccc(N=Nc2ccc(O)c(C(=O)O)c2)cc1	inactive; negative	inactive; negative	inactive; negative	inactive; negative	inactive; negative					mutagenic call (Test System: AMES SALMONELLA TYPHIMURIUM, Strain/Indicator: TA98, Metabolic Activation: RAT, LIVER, S-9, AROCLOR 1254, Method: STANDARD PLATE): inactive; negative; mutagenic call (Test System: AMES SALMONELLA TYPHIMURIUM, Strain/Indicator: TA100, Metabolic Activation: RAT, LIVER, S-9, AROCLOR 1254, Method: STANDARD PLATE): inactive; negative; mutagenic call (Test System: AMES SALMONELLA TYPHIMURIUM, Strain/Indicator: TA1535, Metabolic Activation: RAT, LIVER, S-9, AROCLOR 1254, Method: STANDARD PLATE): inactive; negative; mutagenic call (Test System: AMES SALMONELLA TYPHIMURIUM, Strain/Indicator: TA1537, Metabolic Activation: RAT, LIVER, S-9, AROCLOR 1254, Method: STANDARD PLATE): inactive; negative; mutagenic call (Test System: AMES SALMONELLA TYPHIMURIUM, Strain/Indicator: TA1538, Metabolic Activation: RAT, LIVER, S-9, AROCLOR 1254, Method: STANDARD PLATE): inactive; negative; mutagenic call (Test System: CHINESE HAMSTER V-79, Strain/Indicator: V-79 (HGPRT)/8-AZAGUANINE, Metabolic Activation: NONE): inactive; negative; mutagenic call (Test System: CHINESE HAMSTER V-79, Strain/Indicator: V-79 (HGPRT)/8-AZAGUANINE, Metabolic Activation: RAT, LIVER, S-9): inactive; negative
O=C(O)/C=C/C(=O)CC(=O)CC(=O)O										mutagenic call (Test System: CHINESE HAMSTER V-79, Strain/Indicator: V-79 (HGPRT)/6-THIOGUANINE, Metabolic Activation: NONE): active; positive
Cc1cccc(OCC(O)CNC(C)(C)C)c1C (configuration not stated)	inactive; negative	inactive; negative	inactive; negative	inactive; negative	inactive; negative	inactive; negative	inactive; negative	inactive; negative	inactive; negative	mutagenic call (Test System: AMES SALMONELLA TYPHIMURIUM, Strain/Indicator: TA1538, Metabolic Activation: S-9, Method: STANDARD PLATE): inactive; negative; mutagenic call (Test System: E. COLI WP2, Strain/Indicator: WP2 UVRA, Metabolic Activation: NONE, Method: STANDARD PLATE): inactive; negative; mutagenic call (Test System: E. COLI WP2, Strain/Indicator: WP2 UVRA, Metabolic Activation: S-9, Method: STANDARD PLATE): inactive; negative
C=C1CC[C@H]2[C@@H](c3c(C)c(O)c4c(c31)C(=O)[C@@H](C)C4)C2(C)C	inactive; negative	inactive; negative								mutagenic call (Test System: AMES SALMONELLA TYPHIMURIUM, Strain/Indicator: TA98, Method: STANDARD PLATE): inactive; negative; mutagenic call (Test System: AMES SALMONELLA TYPHIMURIUM, Strain/Indicator: TA100, Method: STANDARD PLATE): inactive; negative
Cc1c2ccccc2cc2ccc3c(c12)C=CC(=O)C3=O										mutagenic call (Test System: AMES SALMONELLA TYPHIMURIUM, Strain/Indicator: TA97A, Metabolic Activation: NONE, Method: PREINCUBATION): inactive; negative; mutagenic call (Test System: AMES SALMONELLA TYPHIMURIUM, Strain/Indicator: TA98, Metabolic Activation: NONE, Method: PREINCUBATION): active; positive; mutagenic call (Test System: AMES SALMONELLA TYPHIMURIUM, Strain/Indicator: TA100, Metabolic Activation: NONE, Method: PREINCUBATION): inactive; negative; mutagenic call (Test System: AMES SALMONELLA TYPHIMURIUM, Strain/Indicator: TA102, Metabolic Activation: NONE, Method: PREINCUBATION): inactive; negative; mutagenic call (Test System: AMES SALMONELLA TYPHIMURIUM, Strain/Indicator: TA104, Metabolic Activation: NONE, Method: PREINCUBATION): inactive; negative
O=C(CCl)Nc1snc2ccc(Cl)cc12	inactive; negative	inactive; negative	inactive; negative	active; positive		active; positive	active; positive	inactive; negative	active; positive	
